Format in all cases: cell-based
The test system of one experiment is HepG2. Nature of the experiment: MTT cytotoxicity assay, HepG2. As to conditions: HepG2 human hepatocellular carcinoma, 5 d incubation, 37 °C, 5% CO2, DMEM + 10% FBS, mean ± SD of two independent measurements. The protocol:
(§1) The cell cultures were cultivated at 37 °C under an atmosphere containing 5% CO2. Before usage, Dulbecco’s Modified Eagle Medium (DMEM) from Gibco (Thermo Fisher Scientific) was supplemented with 10% fetal bovine serum (FBS) from Gibco. Cells were used between passage 5 and 30 and were split separately for at least two passages to obtain biological repeats. Cells were washed with PBS and 0.5 mL trypsin was added before treatment. Cells were then incubated for 5 min before adding 10 mL medium containing 10% FBS. Per well, 120 µL cell suspension 5 × 10^4 cells/mL (CHO-K1, HCT-116. U-2 OS, KB3.1) or 1 × 10^5 cells/mL (HepG2) cells were seeded in transparent 96-well cell bind plate and incubated for 2 h at 37 °C and an atmosphere of 5% CO2. Each compound was tested in a serial dilution so that the starting concentration is 111 µg/mL, which is diluted by 1:3 as well as the internal solvent control prepared in DMEM with 10% FBS. After 5 d incubation at 37 °C and an atmosphere of 5% CO2, 20 μL of 5 mg/mL MTT (thiazolyl blue tetrazolium bromide) in PBS was added per well and cells were further incubated until coloration of the cells. The medium was then discarded and 100 μL 2-propanol/10 N HCl (250:1) added to the cells. The plates were analyzed by measuring the absorbance at 570 nm and 630 nm as reference using a microplate reader Infinite® 200 Pro from Tecan (Männedorf, Switzerland). Absorption is then converted to cell viability expressed as percentage relative to the respective solvent control. The calculated percentage of growth inhibition were determined by sigmoidal curve fitting using GraphPad (Boston, MA, USA) Prism software (version 10.0.2). Two independent measurements were generated for mean and standard deviation.

The next experiment concerns HCT-116. Nature of the experiment: MTT cytotoxicity assay, HCT-116. As to conditions: HCT-116 human colon carcinoma, 5 d incubation, 37 °C, 5% CO2, DMEM + 10% FBS, mean ± SD of two independent measurements. The protocol:
as §1
For orientation: Tetrazolium assays rely on reduction of a dye to a coloured formazan, in cell work by metabolically active cells.

In another experiment the test system is U-2 OS. Nature of the experiment: MTT cytotoxicity assay, U-2 OS. The following applies: U-2 OS human bone osteosarcoma, 5 d incubation, 37 °C, 5% CO2, DMEM + 10% FBS, mean ± SD of two independent measurements. The protocol: as §1
The subject of the next experiment is KB3.1. Nature of the experiment: MTT cytotoxicity assay, KB3.1. As to conditions: KB3.1 human epidermoid carcinoma cell line, 5 d incubation, 37 °C, 5% CO2, DMEM + 10% FBS, mean ± SD of two independent measurements. On the procedure: as §1
For a further experiment, the system named is CHO-K1. Nature of the experiment: MTT cytotoxicity assay, CHO-K1. As to conditions: CHO-K1 mutagenized Chinese hamster ovary, 5 d incubation, 37 °C, 5% CO2, DMEM + 10% FBS, mean ± SD of two independent measurements. On the procedure: as §1
Setting [1] is: ≤ values: individual results varied widely, given as a range.

The term IC50 denotes the concentration needed to halve the response being measured. On to `CCCCSCCC[C@@H]1C[C@H](O)[C@H](C)C[C@H](C)C[C@H](C)C(=O)NCC(=O)N(C)[C@H](Cc2ccc(O)c(I)c2)C(=O)O1` [Compound 11b, (3R,9S,11S,13R,14S,16R)-16-[3-(Butylthio)propyl]-14-hydroxy-3-(4-hydroxy-3-iodobenzyl)-4,9,11,13-tetramethyl-1-oxa-4,7-diazacyclohexadecane-2,5,8-trione], for which the IC50 in the experiment on HepG2 is more than 52.5 µM; in the experiment with HCT-116, more than 52500 nM; in the experiment with U-2 OS (setting [1]), 238 ± 10 nM; with KB3.1 (setting [1]), 28 ± 3 nM; in the experiment with CHO-K1 it was 142 ± 85 nM.
Consider “Benzyl 2-(4-{[(3R,9S,11S,13R,14S,16R)-14-hydroxy-3-(4-hydroxy-3-iodobenzyl)-4,9,11,13-tetramethyl-2,5,8-trioxo-1-oxa-4,7-diazacyclohexadecan-16-yl]methyl}-1H-1,2,3-triazol-1-yl)acetate [Compound 9c]”, for which the IC50 is more than 46 µM with HepG2; 3810 ± 1000 nM in the experiment on HCT-116; 14400 ± 1300 nM with U-2 OS; 21900 ± 12600 nM in the experiment with KB3.1; 23800 ± 500 nM in the experiment with CHO-K1.
With `C[C@H]1C[C@@H](C)[C@@H](O)C[C@@H](CC#Cc2ccccc2)OC(=O)[C@@H](Cc2ccc(O)c(I)c2)N(C)C(=O)CNC(=O)[C@@H](C)C1` [Compound 10a, (3R,9S,11S,13R,14S,16R)-14-Hydroxy-3-(4-hydroxy-3-iodobenzyl)-4,9,11,13-tetramethyl-16-(3-phenylprop-2-yn-1-yl)-1-oxa-4,7-diazacyclohexadecane-2,5,8-trione], the IC50 with HepG2 turned out to be 15.5 ± 0.3 µM; with HCT-116 (setting [1]), 14.5 ± 0.6 nM; in the experiment on U-2 OS (setting [1]), 683 ± 87 nM; with KB3.1 (setting [1]) it was 49 ± 29 nM; with CHO-K1, 247 ± 145 nM.
As to `C[C@H]1C[C@@H](C)[C@@H](O)C[C@@H](CC#Cc2ccc([N+](=O)[O-])cc2)OC(=O)[C@@H](Cc2ccc(O)c(I)c2)N(C)C(=O)CNC(=O)[C@@H](C)C1` [Compound 10c, (3R,9S,11S,13R,14S,16R)-14-Hydroxy-3-(4-hydroxy-3-iodobenzyl)-4,9,11,13-tetramethyl-16-[3-(4-nitrophenyl)prop-2-yn-1-yl]-1-oxa-4,7-diazacyclohexadecane-2,5,8-trione], the IC50 in the experiment with HepG2 is more than 50.4 µM; in the experiment with HCT-116 (setting [1]), 10 ± 3 nM; in the experiment with U-2 OS (setting [1]), 491 ± 95 nM; with KB3.1 (setting [1]), 98 ± 41 nM; in the experiment with CHO-K1, 586 ± 205 nM.
For `COc1ccc(C#CC[C@@H]2C[C@H](O)[C@H](C)C[C@H](C)C[C@H](C)C(=O)NCC(=O)N(C)[C@H](Cc3ccc(O)c(I)c3)C(=O)O2)cc1` [Compound 10b, (3R,9S,11S,13R,14S,16R)-14-Hydroxy-3-(4-hydroxy-3-iodobenzyl)-16-[3-(4-methoxyphenyl)prop-2-yn-1-yl]-4,9,11,13-tetramethyl-1-oxa-4,7-diazacyclohexadecane-2,5,8-trione], the half-maximal inhibitory concentration (IC50) with HepG2 is more than 51.5 µM; in the experiment with HCT-116 (setting [1]) it was 153 ± 56 nM; with U-2 OS it was 1880 ± 110 nM; in the experiment with KB3.1 it was 459000 ± 111000 nM; with CHO-K1 it was 1460 ± 280 nM.
`C[C@H]1C[C@@H](C)[C@@H](O)C[C@@H](CC#C[Si](C)(C)C)OC(=O)[C@@H](Cc2ccc(O)c(I)c2)N(C)C(=O)CNC(=O)[C@@H](C)C1` [Compound 8a, (3R,9S,11S,13R,14S,16R)-14-Hydroxy-3-(4-hydroxy-3-iodobenzyl)-4,9,11,13-tetramethyl-16-[3-(trimethylsilyl)prop-2-yn-1-yl]-1-oxa-4,7-diazacyclohexadecane-2,5,8-trione]: the concentration for half-maximal inhibition (IC50) is 20 ± 4.5 µM in the experiment with HepG2; 8 ± 7.3 nM in the experiment on HCT-116 (setting [1]); 336 ± 146 nM in the experiment on U-2 OS (setting [1]); not above 115 nM in the experiment on KB3.1 (setting [1]); 380 ± 44 nM in the experiment on CHO-K1.
On to `C[C@H]1C[C@@H](C)[C@@H](O)C[C@@H](Cc2cn(CCOCCOCCOCCNC(=O)OC(C)(C)C)nn2)OC(=O)[C@@H](Cc2ccc(O)c(I)c2)N(C)C(=O)CNC(=O)[C@@H](C)C1` [Compound 9g, tert-Butyl [2-(2-{2-[2-(4-{[(3R,9S,11S,13R,14S,16R)-14-hydroxy-3-(4-hydroxy-3-iodobenzyl)-4,9,11,13-tetramethyl-2,5,8-trioxo-1-oxa-4,7-diazacyclohexadecan-16-yl]methyl}-1H-1,2,3-triazol-1-yl)ethoxy]ethoxy}ethoxy)ethyl]carbamate], for which the IC50 in the experiment with HepG2 is more than 39.7 µM; in the experiment on HCT-116 (setting [1]), 432 ± 140 nM; in the experiment on U-2 OS it was 2940 ± 1750 nM; with KB3.1 it was 3290 ± 1390 nM; in the experiment with CHO-K1, 12900 ± 3000 nM.
With `C[C@H]1C[C@@H](C)[C@@H](O)C[C@@H](Cc2cn(CCOCCOCCO)nn2)OC(=O)[C@@H](Cc2ccc(O)c(I)c2)N(C)C(=O)CNC(=O)[C@@H](C)C1` [Compound 9e, (3R,9S,11S,13R,14S,16R)-14-Hydroxy-3-(4-hydroxy-3-iodobenzyl)-16-((1-(2-(2-(2-hydroxyethoxy)ethoxy)ethyl)-1H-1,2,3-triazol-4-yl)methyl)-4,9,11,13-tetramethyl-1-oxa-4,7-diazacyclohexadecane-2,5,8-trione], the half-inhibitory concentration (IC50) in the experiment on HepG2 is more than 47 µM; with HCT-116, 8550 ± 1140 nM; with U-2 OS it was 23000 ± 4400 nM; in the experiment on KB3.1 it was 10500 ± 300 nM; with CHO-K1, more than 47000 nM.
For the compound `CCCCCn1cc(C[C@@H]2C[C@H](O)[C@H](C)C[C@H](C)C[C@H](C)C(=O)NCC(=O)N(C)[C@H](Cc3ccc(O)c(I)c3)C(=O)O2)nn1` [Compound 9b, (3R,9S,11S,13R,14S,16R)-14-hydroxy-3-(4-hydroxy-3-iodobenzyl)-4,9,11,13-tetramethyl-16-((1-pentyl-1H-1,2,3-triazol-4-yl)methyl)-1-oxa-4,7-diazacyclohexadecane-2,5,8-trione], the half-inhibitory concentration (IC50) in the experiment with HCT-116 (setting [1]) was not above 110 nM; in the experiment on U-2 OS (setting [1]), not above 110 nM; in the experiment with KB3.1 (setting [1]), 41 ± 14 nM; in the experiment with CHO-K1, 69 ± 12 nM.
Turning to `C[C@H]1C[C@@H](C)[C@@H](O)C[C@@H](Cc2cn(Cc3ccccc3)nn2)OC(=O)[C@@H](Cc2ccc(O)c(I)c2)N(C)C(=O)CNC(=O)[C@@H](C)C1` [Compound 9a, (3R,9S,11S,13R,14S,16R)-16-[(1-Benzyl-1H-1,2,3-triazol-4-yl)methyl]-14-hydroxy-3-(4-hydroxy-3-iodobenzyl)-4,9,11,13-tetramethyl-1-oxa-4,7-diazacyclohexadecane-2,5,8-trione], the half-inhibitory concentration (IC50) with HepG2 is more than 49.6 µM; in the experiment on HCT-116 (setting [1]) it was 309 ± 81 nM; in the experiment with U-2 OS (setting [1]), not above 80 nM; with KB3.1 (setting [1]), 47 ± 13 nM; in the experiment on CHO-K1, 24 ± 9 nM.
`C[C@H]1C[C@@H](C)[C@@H](O)C[C@@H](CCCSCc2ccccc2)OC(=O)[C@@H](Cc2ccc(O)c(I)c2)N(C)C(=O)CNC(=O)[C@@H](C)C1` [Compound 11c, (3R,9S,11S,13R,14S,16R)-16-[3-(Benzylthio)propyl]-14-hydroxy-3-(4-hydroxy-3-iodobenzyl)-4,9,11,13-tetramethyl-1-oxa-4,7-diazacyclohexadecane-2,5,8-trione]: the IC50 in the experiment with HepG2 is more than 50 µM; in the experiment with HCT-116 (setting [1]), 10.8 ± 1.2 nM; in the experiment with U-2 OS (setting [1]) it was 582 ± 68 nM; in the experiment with KB3.1 (setting [1]) it was 37 ± 1 nM; in the experiment on CHO-K1 it was 391 ± 122 nM.
With `C[C@H]1C[C@@H](C)[C@@H](O)C[C@@H](Cc2cn(CCOCCOCCNC(=O)OC(C)(C)C)nn2)OC(=O)[C@@H](Cc2ccc(O)c(I)c2)N(C)C(=O)CNC(=O)[C@@H](C)C1` [Compound 9f, tert-Butyl (2-{2-[2-(4-{[(3R,9S,11S,13R,14S,16R)-14-hydroxy-3-(4-hydroxy-3-iodobenzyl)-4,9,11,13-tetramethyl-2,5,8-trioxo-1-oxa-4,7-diazacyclohexadecan-16-yl]methyl}-1H-1,2,3-triazol-1-yl)ethoxy]ethoxy}ethyl)carbamate], the IC50 with HepG2 is more than 41.7 µM; in the experiment with HCT-116 (setting [1]) it was 86 ± 79 nM; with U-2 OS, 1560 ± 670 nM; in the experiment on KB3.1 (setting [1]), 722 ± 180 nM; in the experiment with CHO-K1, 6380 ± 2810 nM.

The values are drawn from publication PMC11051198, “Synthesis and Late-Stage Modification of (−)-Doliculide Derivatives Using Matteson’s Homologation Approach” (Marine Drugs, 2024).
